Test results published in patent US12427212B2, “Nectin-4 binding miniproteins, conjugates and uses thereof” (Aktis Oncology, Inc., priority 2023, dated 2025).
Bridges are numbered along the chain shown (N, C = ends). The star is where a group is joined. DOTA = O=C(O)CN1CCN(CC(=O)O)CCN(CC(=O)*)CCN(CC(=O)O)CC1; PEG4 = NCCOCCOCCOCCOCCC(=O)O

What was measured:
[1] = test system: Opossum kidney proximal tubule cells; test: Proximal tubule epithelial cell uptake assay; assay type: cell-based; settings: Table 10A; mean percent uptake in opossum kidney cells, 1 h at 37° C., relative to control miniprotein C306
Method: FIG. 8 is a bar graph of the percent uptake of exemplary miniproteins tested at 20 µM in a proximal tubule epithelial cell assay vs 20 μM control peptide set at 100%. […]
Opossum kidney proximal tubule cells were plated in the upper chamber of 24-well transwell plates containing 600 μL of growth media in the lower chamber and were incubated overnight at 37° C., in 5% CO2. The following day, the media was changed, and cells were incubated an additional 24 h with orbital shaking at 146 RPM. Next, cells were washed and treated in duplicates with biotinylated exemplary miniproteins pre-complexed with streptavidin-AF647 for 1 h at 37° C., and 5% C02 with continuous orbital shaking. Following incubation, cells were washed three times with 1×PBS and lysed with RIPA buffer containing protease and phosphatase inhibitor cocktail and a universal nuclease for 30 minutes. Uptake was measured on 100 μL of lysates using a fluorimeter. Mean % uptake values of control miniprotein C306 in the presence of exemplary miniproteins are provided in TABLE 10A and summarized in FIG. 8.
Uptake of engineered Nectin-4 miniproteins with further modified lysine residues (C298-C304, as described in Example 4B) was evaluated. Percent uptake of these exemplary Nectin-4-targeting miniproteins and C251 were determined against a control miniprotein, C306, using opossum kidney proximal tubule cells as described in Example 18A. Percent uptake of C298, which has an unmodified lysine (K) at amino acid position 26 (along the length of the miniprotein sequence. SEQ ID NO: 162), was 37% in the presence of […]. All other miniproteins having a modified lysine (modified with one or more small alkyl groups of monomethyl, dimethyl, trimethyl, or isopropyl group) had (i) kidney uptake similar to that of C251 and (ii) reduced uptake as compared to C298, which has an unmodified lysine at position 26.

[2] = In vivo biodistribution of 111In-labeled miniproteins by SPECT/CT, HT-1376 xenograft; parameters: species or system mouse; settings: female, athymic nude, mouse, in vivo
Description: HT-1376 is a human cell line that expresses Nectin-4.
Humane endpoints: All animals were euthanized following the final imaging time point and carcasses were discarded according to IACUC protocols.
Image Processing: Images were generated as SPECT/CT pairs with the SPECT reported in units of activity.
Image generation: After the preprocessing described in A, individual maximum intensity projections (MIPs) were created with VivoQuant software for each subject at each time point and scaled in percent injected dose per gram (% ID/g). The CT for each image was windowed from −500 to 4500 Hounsfield Units (HU). The SPECT was windowed at various ranges to highlight different regions of uptake. Images were then stitched together using Image Magick based python tools to create montages of subjects over time and time points over groups.

[3] = In vitro metabolic stability in serum/plasma (percent parent remaining, LC-MS); assay type: in vitro ADME; settings: mouse
Method: Exemplary miniproteins were spiked into biological matrices at initial concentration between 1-2 μM. Tested matrices were varied by species (mouse, rat, human) and type (plasma, serum, and kidney brush border membrane (kBBM) preparations tested each from 0.625-100 μg/mL protein content). Tested conditions were incubated with miniproteins at 37° C. for 4 h. At collection points of 0, 15, 30, 60, 120, 240 minutes, 50 μL of each condition were quenched by organic solvent (methanol or acetonitrile) or the addition of 4% phosphoric acid solution followed by solid-phase extraction. Fractions of each quenched timepoint were subsequently assayed for parent miniproteins concentration by high resolution LC-MS. Percent-parent-remaining-time plots were constructed from the ratio of each given time collection to the time-zero parent miniprotein. Percent-parent-remaining in mouse serum and plasma for exemplary miniproteins are recorded in TABLE 11.

Molecule	% Uptake of C306 (Control) [1]	tissue uptake at 4 h [2]	tissue uptake at 24 h [2]	half-life [3]	half-life ([3]; plasma)
CC[C@H](C)[C@@H]1NC(=O)[C@H](Cc2ccc(O)cc2)NC(=O)[C@H](Cc2ccc(O)cc2)NC(=O)[C@@H]2CSSC[C@@H](C(=O)N[C@@H](CO)C(=O)O)NC(=O)CNC(=O)[C@H](CC(C)C)NC(=O)[C@H](CC(N)=O)NC(=O)[C@H](CC(=O)O)NC(=O)[C@H](CC(C)C)NC(=O)[C@H]([C@@H](C)CC)NC(=O)[C@H](CCC(=O)O)NC(=O)[C@H](CCC(=O)O)NC(=O)[C@H]([C@@H](C)CC)NC(=O)[C@H](CSSC[C@H](NC(=O)CCOCCOCCOCCOCCNC(=O)CCCC[C@@H]3SC[C@@H]4NC(=O)N[C@@H]43)C(=O)N[C@@H](CCC(=O)O)C(=O)N[C@@H](Cc3ccc(O)cc3)C(=O)N[C@@H](CC(=O)O)C(=O)N[C@@H](CCC(=O)O)C(=O)N[C@@H](CCC(=O)O)C(=O)N[C@@H](Cc3ccccc3)C(=O)N[C@@H](Cc3ccccc3)C(=O)N[C@@H]([C@@H](C)O)C(=O)N[C@@H](C)C(=O)N[C@@H](CC(C)C)C(=O)N[C@@H](CCCCN)C(=O)N[C@@H](CCCNC(=N)N)C(=O)N[C@@H](CC(C)C)C(=O)N[C@@H](CCCNC(=N)N)C(=O)NCC(=O)NCC(=O)N[C@@H](CC(=O)O)C(=O)N[C@@H]([C@@H](C)CC)C(=O)N2)NC(=O)[C@H](CC(C)C)NC(=O)CNC(=O)[C@@H]2CCCN2C(=O)[C@H](CC(C)C)NC(=O)[C@H](Cc2ccc(O)cc2)NC(=O)[C@H](CCC(N)=O)NC(=O)[C@H](Cc2ccccc2)NC(=O)[C@H](CO)NC(=O)[C@H](C)NC(=O)[C@H](CCC(N)=O)NC1=O [Compound C111]	20.8%				
CC[C@H](C)[C@@H]1NC(=O)[C@H](Cc2ccc(O)cc2)NC(=O)[C@H](CCC(=O)O)NC(=O)[C@@H]2CSSC[C@@H](C(=O)N[C@@H](CO)C(=O)O)NC(=O)CNC(=O)[C@H](CC(C)C)NC(=O)[C@H](CC(N)=O)NC(=O)[C@H](CC(=O)O)NC(=O)[C@H](CC(C)C)NC(=O)[C@H]([C@@H](C)CC)NC(=O)[C@H](CCC(=O)O)NC(=O)[C@H](CCC(=O)O)NC(=O)[C@H]([C@@H](C)CC)NC(=O)[C@H](CSSC[C@H](NC(=O)CCOCCOCCOCCOCCNC(=O)CN3CCN(CC(=O)O)CCN(CC(=O)O)CCN(CC(=O)O)CC3)C(=O)N[C@@H](CC(=O)O)C(=O)N[C@@H](Cc3ccc(O)cc3)C(=O)N[C@@H](CC(=O)O)C(=O)N[C@@H](CCC(=O)O)C(=O)N[C@@H](CCC(N)=O)C(=O)N[C@@H](Cc3ccccc3)C(=O)N[C@@H](Cc3ccccc3)C(=O)N[C@@H]([C@@H](C)O)C(=O)N[C@@H](C)C(=O)N[C@@H](CC(C)C)C(=O)N[C@@H](CCCCN)C(=O)N[C@@H](CCCNC(=N)N)C(=O)N[C@@H](CC(C)C)C(=O)N[C@@H](CCCNC(=N)N)C(=O)NCC(=O)NCC(=O)N[C@@H](CC(=O)O)C(=O)N[C@@H]([C@@H](C)CC)C(=O)N2)NC(=O)[C@H](CC(C)C)NC(=O)CNC(=O)[C@@H]2CCCN2C(=O)[C@H](CC(C)C)NC(=O)[C@H](Cc2ccc(O)cc2)NC(=O)[C@H](CCC(N)=O)NC(=O)[C@H](Cc2ccccc2)NC(=O)[C@H](CO)NC(=O)[C@H](C)NC(=O)[C@H](CCC(N)=O)NC1=O [Compound C241]		60.1 %ID/g	38.3 %ID/g	> 12 h	> 12 h
CC[C@H](C)[C@@H]1NC(=O)[C@H](Cc2ccc(O)cc2)NC(=O)[C@H](CCC(=O)O)NC(=O)[C@@H]2CSSC[C@@H](C(=O)N[C@@H](CO)C(=O)O)NC(=O)CNC(=O)[C@H](CC(C)C)NC(=O)[C@H](CC(N)=O)NC(=O)[C@H](CC(=O)O)NC(=O)[C@H](CC(C)C)NC(=O)[C@H]([C@@H](C)CC)NC(=O)[C@H](CCC(=O)O)NC(=O)[C@H](CCC(=O)O)NC(=O)[C@H]([C@@H](C)CC)NC(=O)[C@H](CSSC[C@H](NC(=O)CCOCCOCCOCCOCCNC(=O)CN3CCN(CC(=O)O)CCN(CC(=O)O)CCN(CC(=O)O)CC3)C(=O)N[C@@H](CC(=O)O)C(=O)N[C@@H](Cc3ccc(O)cc3)C(=O)N[C@@H](CC(=O)O)C(=O)N[C@@H](CCC(=O)O)C(=O)N[C@@H](CCC(N)=O)C(=O)N[C@@H](Cc3ccccc3)C(=O)N[C@@H](Cc3ccccc3)C(=O)N[C@@H]([C@@H](C)O)C(=O)N[C@@H](C)C(=O)N[C@@H](CC(C)C)C(=O)N[C@@H](C)C(=O)N[C@@H](CCCNC(=N)N)C(=O)N[C@@H](CC(C)C)C(=O)N[C@@H](CCCNC(=N)N)C(=O)NCC(=O)N[C@@H](C)C(=O)N[C@@H](CC(=O)O)C(=O)N[C@@H]([C@@H](C)CC)C(=O)N2)NC(=O)[C@H](CCC(=O)O)NC(=O)CNC(=O)[C@@H]2CCCN2C(=O)[C@H](CC(C)C)NC(=O)[C@H](Cc2ccc(O)cc2)NC(=O)[C@H](CCC(N)=O)NC(=O)[C@H](Cc2ccccc2)NC(=O)[C@H](CO)NC(=O)[C@H](C)NC(=O)[C@H](CCC(N)=O)NC1=O [Compound C245]		61 %ID/g	33.5 %ID/g	> 12 h	> 12 h
CC[C@H](C)[C@@H]1NC(=O)[C@H](Cc2ccc(O)cc2)NC(=O)[C@H](CCC(=O)O)NC(=O)[C@@H]2CSSC[C@@H](C(=O)N[C@@H](CO)C(=O)O)NC(=O)CNC(=O)[C@H](CC(C)C)NC(=O)[C@H](CC(N)=O)NC(=O)[C@H](CC(=O)O)NC(=O)[C@H](CC(C)C)NC(=O)[C@H]([C@@H](C)CC)NC(=O)[C@H](CCC(=O)O)NC(=O)[C@H](CCC(=O)O)NC(=O)[C@H]([C@@H](C)CC)NC(=O)[C@H](CSSC[C@H](NC(=O)CCOCCOCCOCCOCCNC(=O)CN3CCN(CC(=O)O)CCN(CC(=O)O)CCN(CC(=O)O)CC3)C(=O)N[C@@H](CC(=O)O)C(=O)N[C@@H](Cc3ccc(O)cc3)C(=O)N[C@@H](CC(=O)O)C(=O)N[C@@H](CCC(=O)O)C(=O)N[C@@H](CCC(N)=O)C(=O)N[C@@H](Cc3ccccc3)C(=O)N[C@@H](Cc3ccccc3)C(=O)N[C@@H]([C@@H](C)O)C(=O)N[C@@H](C)C(=O)N[C@@H](CC(C)C)C(=O)N[C@@H](CCCCN)C(=O)N[C@@H](CCCNC(=N)N)C(=O)N[C@@H](CC(C)C)C(=O)N[C@@H](CCCNC(=N)N)C(=O)NCC(=O)N[C@@H](C)C(=O)N[C@@H](CC(=O)O)C(=O)N[C@@H]([C@@H](C)CC)C(=O)N2)NC(=O)[C@H](CCC(=O)O)NC(=O)CNC(=O)[C@@H]2CCCN2C(=O)[C@H](CC(C)C)NC(=O)[C@H](Cc2ccc(O)cc2)NC(=O)[C@H](CCC(N)=O)NC(=O)[C@H](Cc2ccccc2)NC(=O)[C@H](CO)NC(=O)[C@H](C)NC(=O)[C@H](CCC(N)=O)NC1=O [Compound C271]		59.1 %ID/g	34.3 %ID/g	> 12 h	> 12 h
{DOTA-PEG4}-CEYDEEFFTALARLRGDDICSYIQAKFQYLPGLCIEEILDNLGCS-OH (disulfide 1-34, 20-44 (inferred)) [Compound C293]		55.8 %ID/g	32.6 %ID/g	> 12 h	> 12 h
{DOTA-PEG4}-CEYDEQFFTALKRLRGADICSYIQASFQYLPGLCIEEILDNLGCS-OH (disulfide 1-34, 20-44) [Compound C250]		67.5 %ID/g	34.9 %ID/g	> 12 h	> 12 h
